Common to all, as to type: cell-based
The subject of test [1] is S. aureus (ATCC 6538). The experiment in a line: Minimal bactericidal concentration determination, serial 2-fold dilution. As to conditions: 250 μg/mL (0.025% w/w), positive control. The protocol:
(§1) The minimal bactericidal concentration (MBC) of octenidine dihydrochloride was determined against S. aureus (ATCC 6538), P. aeruginosa (ATCC 15442), and E. coli (ATCC BAA 1427) by serial 2-fold dilution experiments. A solution of chlorhexidine (0.025% w/w) was used as a positive control and comparator.

Test [2] concerns E. coli (ATCC BAA 1427). The test is described as above. The protocol: as §1
The subject of test [3] is P. aeruginosa (ATCC 15442). The description is as above. As to conditions: 250 μg/mL (0.025% w/w), positive control. As to the method: as §1
Test [4] deals with S. aureus (ATCC 6538). The experiment in a line: Minimum inhibitory concentration determination, serial 2-fold dilution. Particulars: Staphylococcus aureus, ATCC6538, read-out: Average Growth Inhibition (%). As to the method: (§2) The minimal inhibitory concentration (MIC, the minimum inhibitory concentration required for 90% growth reduction) of octenidine was determined against S. aureus (ATCC 6538), P. aeruginosa (ATCC 15442), and E. coli (ATCC BAA 1427) by serial 2-fold dilution experiments. A solution of chlorhexidine (0.025% w/w) was used as a positive control and comparator.

Test [5] relates to E. coli (ATCC BAA 1427). The test is described as above. As to conditions: Escherichia coli, BAA1427, 250 μg/mL (0.025% w/w), positive control, read-out: Average Growth Inhibition (%). The protocol:
as §2

The test system of test [6] is P. aeruginosa (ATCC 15442). The description is as above. Particulars: Pseudomonas aeruginosa, ATCC15442, read-out: Average Growth Inhibition (%). The protocol:
as §2

Test [7] has as its system S. aureus. The experiment in a line: Chequerboard assay, FIC and synergy analysis. As to conditions: Staphylococcus aureus. The protocol:
(§3) Chlorhexidine gluconate (CHG) and octenidine dihydrochloride (OCT) were analyzed by chequerboard assay with each test organism to determine potential additive, synergistic, and antagonistic activity. The test organisms S. aureus, P. aeruginosa, and E. coli were tested at ranges of chlorhexidine gluconate (0.122-15.625 μg/ml, 1.25-160 μg/ml, and 0.125-16 μg/ml, respectively) and octenidine dihydrochloride (0.029-3.75 μg/mL, 0.029-3.75 μg/mL, and 0.029-3.75 μg/mL, respectively). FIC was calculated by the following Equation 2: […]

The subject of test [8] is P. aeruginosa. The test is described as follows: Chequerboard assay, FIC and synergy analysis. As to conditions: Pseudomonas aeruginosa. As to the method:
as §3

The test system of test [9] is E. coli. The test is described as follows: Chequerboard assay, FIC and synergy analysis. As to conditions: Escherichia coli. As to the method:
as §3

Where [10] appears, read: in presence of OCT, read-out: MIC of CHG in Presence of OCT.

Like-named read-outs stand apart in the source and are kept apart here.

As a reminder, the inhibition is the relative decrease from the control value, in per cent. Turning to `N=C(NCCCCCCNC(=N)NC(=N)Nc1ccc(Cl)cc1)NC(=N)Nc1ccc(Cl)cc1` [Chlorhexidine gluconate, 1-[amino-[6-[amino-[amino-(4-chlorophenyl)amino-methylidene]amino-methylidene]aminohexylimino]methyl]imino-N-(4-chlorophenyl)-methanediamine; (2R,3S,4R,5R)-2,3,4,5,6-pentahydroxyhexanoic acid.], the CFU/mL in [1], in [2] and in [3] was 0 CFU/mL each time. For the same molecule, the “Number of Colonies” value in test [1] is 0; in [1] (listed as chlorhexidine) it was “no colonies”; in test [2] it was 0; in test [2] (E. coli (ATCC BAA 1427), 250 μg/mL (0.025% w/w), positive control), “no colonies”; in test [3] it was 0; in [3] (listed as chlorhexidine), “no colonies”. In addition, the values for the inhibition at 250 µg/mL in test [4], in [5] and in test [6] were 121%, 63% and 81%, respectively. Also, the MIC stood at 2 µg/mL in test [7] (setting [10]); 4 µg/mL in [7] (read-out: MIC of CHG Alone); 32 µg/mL in [8] (read-out: MIC of CHG Alone (μg/mL)); 16 µg/mL in [8] (read-out: MIC of CHG in Presence of OCT (μg/mL)); 8 µg/mL in test [9] (setting [10]); 16 µg/mL in test [9] (read-out: MIC of CHG Alone).
